Tests used:
[1] = target: T1, Amyloid-beta precursor protein (Homo sapiens, UniProt P05067); test: Binding affinity to amyloid beta (1 to 42) (unknown origin) oligomer
[2] = target: T1, Amyloid-beta precursor protein; test: Binding affinity to amyloid beta (1 to 42) (unknown origin) monomer
[3] = target: T1, Amyloid-beta precursor protein; test: Binding affinity to amyloid beta (1 to 42) (unknown origin) fibrils
[4] = target: T1, Amyloid-beta precursor protein; test: Binding affinity to amyloid beta (1 to 40) (unknown origin) monomer
[5] = target: T1, Amyloid-beta precursor protein; test: Binding affinity to amyloid beta (1 to 40) (unknown origin) fibrils
[6] = target: T1, Amyloid-beta precursor protein; test: Binding affinity to amyloid beta (1 to 40) (unknown origin) oligomer
[7] = Binding affinity to amyloid beta (unknown origin); design: species or system Homo sapiens
[8] = Binding affinity to tau protein (unknown origin); design: species or system Homo sapiens
[9] = Drug uptake in brain of Tg mouse; format: ADME, tissue-based
[10] = Lipophilicity, logP of compound; format: physicochemical; conditions: octanol/water
[11] = Binding affinity to amyloid beta (unknown origin) aggregates; design: species or system Homo sapiens
[12] = Inhibition of amyloid beta (unknown origin) self-induced aggregation; design: species or system Homo sapiens
[13] = target: T1, Amyloid-beta precursor protein; test: Displacement of [125I]IMPY from amyloid beta (1 to 42) (unknown origin) measured by competitive radioligand binding assay
[14] = Drug uptake in brain of Tg mouse at 2 mins post injection; format: ADME, tissue-based; conditions: read-out: Drug uptake
[15] = target: T1, Amyloid-beta precursor protein; test: Binding affinity to human amyloid beta (1 to 40) aggregates measured by fluorescence assay
[16] = target: T1, Amyloid-beta precursor protein; test: Binding affinity to human amyloid beta (1 to 42) monomer measured by fluorescence assay
[17] = target: T1, Amyloid-beta precursor protein; test: Binding affinity to human amyloid beta (1 to 42) oligomer measured by fluorescence assay
[18] = target: T1, Amyloid-beta precursor protein; test: Binding affinity to human amyloid beta (1 to 40) monomer measured by fluorescence assay
[19] = target: T1, Amyloid-beta precursor protein; test: Binding affinity to amyloid beta (1 to 42) (unknown origin) aggregates
[20] = Binding affinity to mouse brain amyloid beta plaques
[21] = target: T1, Amyloid-beta precursor protein; test: Binding affinity to amyloid beta (1 to 40) (unknown origin) aggregates
[22] = Binding affinity to amyloid beta (unknown origin) oligomer; design: species or system Homo sapiens
[23] = Binding affinity to amyloid beta (unknown origin) monomer; design: species or system Homo sapiens
[24] = target: T1, Amyloid-beta precursor protein; test: Binding affinity to human amyloid beta (1 to 42) aggregates measured by fluorescence assay

T1 sequence (P05067 whole entry): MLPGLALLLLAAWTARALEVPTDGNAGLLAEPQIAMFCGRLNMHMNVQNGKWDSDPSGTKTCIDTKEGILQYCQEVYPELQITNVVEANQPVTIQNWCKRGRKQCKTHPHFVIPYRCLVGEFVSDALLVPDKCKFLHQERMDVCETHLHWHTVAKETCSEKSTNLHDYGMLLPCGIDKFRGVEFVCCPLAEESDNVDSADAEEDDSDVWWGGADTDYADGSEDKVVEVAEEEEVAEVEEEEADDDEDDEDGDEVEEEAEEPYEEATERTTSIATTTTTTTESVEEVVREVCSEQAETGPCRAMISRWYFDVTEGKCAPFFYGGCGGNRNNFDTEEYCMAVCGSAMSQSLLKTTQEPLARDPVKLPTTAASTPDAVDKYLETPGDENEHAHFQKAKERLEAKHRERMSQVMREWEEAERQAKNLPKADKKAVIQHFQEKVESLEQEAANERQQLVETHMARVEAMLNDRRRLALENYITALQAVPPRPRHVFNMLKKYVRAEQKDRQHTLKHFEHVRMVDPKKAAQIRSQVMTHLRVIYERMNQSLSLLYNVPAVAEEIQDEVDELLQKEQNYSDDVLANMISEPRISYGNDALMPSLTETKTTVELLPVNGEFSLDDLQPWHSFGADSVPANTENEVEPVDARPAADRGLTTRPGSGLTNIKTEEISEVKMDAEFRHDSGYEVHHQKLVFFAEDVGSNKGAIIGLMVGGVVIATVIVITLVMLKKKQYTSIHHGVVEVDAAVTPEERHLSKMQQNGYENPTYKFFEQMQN

SMILES: CCCCN(CCCC)c1ccc2cc(/C=C/c3c[n+](C)cc4ccccc34)ccc2c1
- Kd [1]: 20.8 µM
- Kd [2]: 25.3 µM
- Kd [3]: 97.9 µM
- Kd [4]: 81 µM
- Kd [5]: 1110 µM
- Kd [6]: 36.4 µM

SMILES: CN(C)c1ccc2nc(/C=C/C=C/C=C(C#N)C#N)cnc2c1
- Kd [7]: 0.0332 µM
- Kd [8]: 0.0431 µM
- Drug uptake ([9]; in vivo): 7.76%

SMILES: CN(C)c1ccc2cc(/C=C/C=C(C#N)C#N)ccc2c1
- logP [10]: 4.1
- tissue uptake ([9]; Tg, brain, read-out: Drug uptake): 1.9 %ID/g
- Kd [11]: 0.0088 µM
- Ki [11]: 0.0967 µM

SMILES: CCCCN(CCCC)c1ccc2cc(/C=C/c3cc[n+](CCO)c4ccccc34)ccc2c1
- Kd [1]: 490 µM
- Kd [2]: 1090 µM
- Kd [3]: 848 µM
- Kd [4]: 246 µM
- Kd [5]: 33.3 µM
- Kd [6]: 41.7 µM

SMILES: CCOC(=O)CN1C(=O)S/C(=C\C=C\c2ccc3c(c2)Sc2ccccc2N3C)C1=O
- logP [10]: 3.6
- Kd [11]: 0.0103 µM
- IC50 [12]: 1.8 µM

SMILES: COC(=O)C(=C/C=C/C=C/c1ccc(N(C)C)cc1)C(=O)OC
- Ki [7]: 0.645 µM
- Ki [13]: 0.652 µM

SMILES: O=C1NC(=S)NC(=O)C1=C/C=C/C=C/C1C(=O)NC(=S)NC1O (stereo not drawn)
- tissue uptake at 2 min [14]: 0.04 %ID/g

SMILES: CN(C)c1ccc(/C=C/C2=CC(/C=C/c3ccc(N(C)C)cc3)=[O+][B-]3(OC(=O)C(=O)O3)O2)cc1
- Kd [15]: 0.0381 µM
- Kd [16]: 0.0032 µM
- Kd [17]: 0.0038 µM

SMILES: CN(C)c1ccc2nc(/C=C/c3ccc(C=C(C#N)C#N)cc3)sc2c1
- Kd [3]: 0.11 µM

SMILES: Cc1c(/C=C/C2=CC(/C=C/c3cnn(-c4ccccc4)c3C)=[O+][B-](F)(F)O2)cnn1-c1ccccc1
- Kd [15]: 0.0524 µM
- Kd [18]: 0.0857 µM
- Kd [17]: 0.0688 µM

SMILES: CCCCN(CCCC)c1ccc2cc(/C=C/c3cc[n+](C)c4ccccc34)ccc2c1
- Kd [1]: 128 µM
- Kd [2]: 281 µM
- Kd [3]: 246 µM
- Kd [4]: 71.1 µM
- Kd [5]: 39.3 µM
- Kd [6]: 20.1 µM

SMILES: CN(C)c1ncc(/C=C/c2nc3cc(OCC[18F])ccc3[se]2)cn1
- Kd [7]: 0.0017 µM
- logP [10]: 1.28

SMILES: CC1=CC(C)=[N+]2C1=Cc1ccc(/C=C/c3ccc(-c4ccc([125I])cc4)s3)n1[B-]2(F)F
- Ki [19]: 0.108 µM

SMILES: CN(C)c1ccc(/C=C/C2=[O+][B-](F)(F)OC(/C=C/c3ccc(OCCOCCF)cc3)=C2)cc1
- Kd [20]: 0.0197 µM

SMILES: CCCN(CCC)c1ccc(/C=C/c2cc[n+](OCC)c3ccccc23)cc1
- Kd [2]: 13.1 µM
- Kd [3]: 3.19 µM
- Kd [4]: 6.18 µM
- Kd [5]: 1.13 µM

SMILES: CCCC[N+]1=C(/C=C/c2ccc(N(CC)CC)cc2)C(C)(C)c2ccccc21
- Ki [21]: 0.00137 µM
- Kd [5]: 0.93 µM
- IC50 [8]: 0.00141 µM

SMILES: CC1=CC(C)=[N+]2C1=C(CCCN1CCNc3ccccc31)c1c(C)cc(/C=C/c3ccc(N(C)C)s3)n1[B-]2(F)F
- Kd [22]: 0.027 µM
- Kd [23]: 0.006 µM
- Kd [11]: 0.018 µM

SMILES: Cc1cc(/C=C/c2ccc(N(C)C)cc2)n2c1C=C1C=CC=[N+]1[B-]2(F)F
- Kd [23]: 0.189 µM
- Kd [8]: 0.0441 µM

SMILES: CCN(CC)c1ccc(/C=C/C2=CC(/C=C/c3ccc(N(CC)CC)nc3)=[O+][B-](F)(F)O2)cn1
- Kd [24]: 0.027 µM
- Kd [16]: 0.024 µM
- Kd [17]: 0.016 µM

SMILES: CN(C)c1ccc2nc(C=C(C#N)C#N)sc2c1
- Kd [3]: 0.12 µM

Source: ChEMBL document CHEMBL5137055, “Near-Infrared Fluorescent Probes as Imaging and Theranostic Modalities for Amyloid-Beta and Tau Aggregates in Alzheimer's Disease” (J Med Chem, 2022)
